Test results as given in ChEMBL document CHEMBL1135927, “Vinyl sulfide cyclized analogues of angiotensin II with high affinity and full agonist activity at the AT(1) receptor” (J Med Chem, 2002).
Active and inactive are the calls of the source. The rule behind the calls is not given here. *1 amine or outer side, *2 acyl side, *3 side chain or, on linkers, in order; H or OH if unused. Where a SMILES comes first, the peptide text is derived from it. Bridges are numbered along the chain shown (N, C = ends). [ ]: non-standard residue; d: D form. X1 = O=C([C@H](CC/C=C\[*:3])N[*:1])[*:2]; X2 = O=C([C@H](CC/C=C/[*:3])N[*:1])[*:2]; hCys = N[C@@H](CCS)C(=O)O

Experiments:
Oryctolagus cuniculus = organism: Oryctolagus cuniculus; experiment: Agonistic activity in vascular contractility study on rabbit aorta; format: functional, organism-based
[1] = molecular target: T1, Type-1 angiotensin II receptor B (Rattus norvegicus, UniProt P29089); experiment: In vitro binding affinity at rat liver Angiotensin II receptor, type 1 was determined based on displacement of [125I]-Ang II
T1 sequence (P29089 whole entry): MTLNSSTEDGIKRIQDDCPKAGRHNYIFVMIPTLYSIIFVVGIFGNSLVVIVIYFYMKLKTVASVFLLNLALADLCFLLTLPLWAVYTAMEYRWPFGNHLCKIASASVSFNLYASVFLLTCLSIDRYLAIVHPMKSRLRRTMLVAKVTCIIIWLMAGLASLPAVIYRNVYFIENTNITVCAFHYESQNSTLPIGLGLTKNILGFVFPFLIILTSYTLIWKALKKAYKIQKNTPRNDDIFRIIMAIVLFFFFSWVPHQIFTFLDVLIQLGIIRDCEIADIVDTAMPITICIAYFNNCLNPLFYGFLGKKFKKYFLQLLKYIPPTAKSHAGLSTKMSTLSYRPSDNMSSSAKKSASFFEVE

[2] = molecular target: T2, Type-1 angiotensin II receptor B (Rattus norvegicus) (UniProt P29089); experiment: In vitro binding affinity at rat liver Angiotensin II receptor, type 1 was determined based on displacement of [125I]-Ang II; no affinity
T2 sequence (whole entry): T1 sequence (P29089 whole entry)

Compound	EC50 (Oryctolagus cuniculus) [nM]	Ki [1] [nM]	further results
NC(N)=NCCC[C@H](NC(=O)[C@@H](N)CC(=O)O)C(=O)N[C@H]1CS/C=C\CC[C@@H](C(=O)N[C@@H](Cc2c[nH]cn2)C(=O)N2CCC[C@H]2C(=O)N[C@@H](Cc2ccccc2)C(=O)O)NC(=O)[C@H](Cc2ccc(O)cc2)NC1=O (H-DRCY[X1]HPF-OH; thioether 3-5)	26	–	–
NC(N)=NCCC[C@H](NC(=O)[C@@H](N)CC(=O)O)C(=O)N[C@H]1CS/C=C\CC[C@@H](C(=O)N[C@@H](Cc2cnc[nH]2)C(=O)N2CCC[C@H]2C(=O)N[C@@H](Cc2ccccc2)C(=O)O)NC(=O)[C@H](Cc2ccc(O)cc2)NC1=O (H-DRCY[X1]HPF-OH; thioether 3-5)	–	1.7	–
NC(N)=NCCC[C@H](NC(=O)[C@@H](N)CC(=O)O)C(=O)N[C@H]1CS/C=C/CC[C@@H](C(=O)N[C@@H](Cc2c[nH]cn2)C(=O)N2CCC[C@H]2C(=O)N[C@@H](Cc2ccccc2)C(=O)O)NC(=O)[C@H](Cc2ccc(O)cc2)NC1=O (H-DRCY[X2]HPF-OH; thioether 3-5)	16.1	–	–
NC(N)=NCCC[C@H](NC(=O)[C@@H](N)CC(=O)O)C(=O)N[C@H]1CS/C=C/CC[C@@H](C(=O)N[C@@H](Cc2cnc[nH]2)C(=O)N2CCC[C@H]2C(=O)N[C@@H](Cc2ccccc2)C(=O)O)NC(=O)[C@H](Cc2ccc(O)cc2)NC1=O (H-DRCY[X2]HPF-OH; thioether 3-5)	–	1.7	–
CC(C)[C@H](NC(=O)[C@H](CCCN=C(N)N)NC(=O)[C@@H](N)CC(=O)O)C(=O)N[C@@H](Cc1ccc(O)cc1)C(=O)N[C@H]1CC/C=C\SC[C@@H](C(=O)N[C@@H](Cc2ccccc2)C(=O)O)NC(=O)[C@H](Cc2c[nH]cn2)NC1=O (H-DRVY[X1]HCF-OH; thioether 5-7)	–	–	NA [2]: inactive
CC(C)[C@H](NC(=O)[C@H](CCCN=C(N)N)NC(=O)[C@@H](N)CC(=O)O)C(=O)N[C@@H](Cc1ccc(O)cc1)C(=O)N[C@H]1CC/C=C/SC[C@@H](C(=O)N[C@@H](Cc2ccccc2)C(=O)O)NC(=O)[C@H](Cc2c[nH]cn2)NC1=O (H-DRVY[X2]HCF-OH; thioether 5-7)	–	–	NA [2]: inactive

Continued, in another order:

EC50 (Oryctolagus cuniculus) [nM]	Ki [1] [nM]	Compound	further results
–	0.23	NC(N)=NCCC[C@H](NC(=O)[C@@H](N)CC(=O)O)C(=O)N[C@H]1CCSSCC[C@@H](C(=O)N[C@@H](Cc2c[nH]cn2)C(=O)N2CCC[C@H]2C(=O)N[C@@H](Cc2ccccc2)C(=O)O)NC(=O)[C@H](Cc2ccc(O)cc2)NC1=O (H-DR[hCys]Y[hCys]HPF-OH; disulfide 3-5)	–
1.4	–	CC[C@H](C)[C@H](NC(=O)[C@H](Cc1ccc(O)cc1)NC(=O)[C@@H](NC(=O)[C@H](CCCNC(=N)N)NC(=O)[C@@H](N)CC(=O)O)C(C)C)C(=O)N[C@@H](Cc1cnc[nH]1)C(=O)N1CCC[C@H]1C(=O)N[C@@H](Cc1ccccc1)C(=O)O [ANGIOTENSIN II]	–
